A short description of series [1]: Third PK study: intravenous dose on day 1 or on day 6 after 5 days oral dosing. The class given is in vivo, female Swiss Albino mice. To be noted: for half-life / clearance / Vd / AUC(0-inf) / AUC(0-t) / C0: female, Swiss Albino, mouse, plasma, iv, 5 mg/kg. Here is the method: In a third study female Swiss Albino mice were administered intravenously (bolus, 5 mL/kg) dose of 5 mg/kg of the compound of formula (I). Group 1 (9 mice) received a single i.v. dose administration on day 1. Group 2 (9 mice) received daily oral administration of 10 mg/kg of the compound of formula (I) from day 1 to day 5 following by a single i.v. dose administration of 5 mg/kg of the compound of formula (I) on day 6. PK samples were collected on day 1 for group 1 and on day 6 for group 2. The formulation vehicle consisted of ethanol, PEG 400 and citric acid 20 mM (10/10/80; v/v/v) in water for injection (WFI). Blood samples were taken pre-dose and at 0.083, 0.25, 0.5, 1, 2, 6, 12, and 24 h post-dose administration (3 mice/time point). In each of the three studies blood was collected via the sephanous vein into K2-EDTA tubes kept on ice until centrifugation at 4° C. Plasma was stored at ap-proximately-80° C. […] PK parameters were calculated using Phoenix® WinNonLin 6.4. PK analysis was based on sparse sampling.

In the next series the target is T1, tumor-derived TTK (Homo sapiens, UniProt P33981).
T1 construct: TTK target occupancy was also measured in tumors derived from MDA-MB-231 xenograft-bearing mice; from tissue; host or cells: MDA-MB-231 xenograft tumours grown in mice
T1 sequence (P33981 1-857): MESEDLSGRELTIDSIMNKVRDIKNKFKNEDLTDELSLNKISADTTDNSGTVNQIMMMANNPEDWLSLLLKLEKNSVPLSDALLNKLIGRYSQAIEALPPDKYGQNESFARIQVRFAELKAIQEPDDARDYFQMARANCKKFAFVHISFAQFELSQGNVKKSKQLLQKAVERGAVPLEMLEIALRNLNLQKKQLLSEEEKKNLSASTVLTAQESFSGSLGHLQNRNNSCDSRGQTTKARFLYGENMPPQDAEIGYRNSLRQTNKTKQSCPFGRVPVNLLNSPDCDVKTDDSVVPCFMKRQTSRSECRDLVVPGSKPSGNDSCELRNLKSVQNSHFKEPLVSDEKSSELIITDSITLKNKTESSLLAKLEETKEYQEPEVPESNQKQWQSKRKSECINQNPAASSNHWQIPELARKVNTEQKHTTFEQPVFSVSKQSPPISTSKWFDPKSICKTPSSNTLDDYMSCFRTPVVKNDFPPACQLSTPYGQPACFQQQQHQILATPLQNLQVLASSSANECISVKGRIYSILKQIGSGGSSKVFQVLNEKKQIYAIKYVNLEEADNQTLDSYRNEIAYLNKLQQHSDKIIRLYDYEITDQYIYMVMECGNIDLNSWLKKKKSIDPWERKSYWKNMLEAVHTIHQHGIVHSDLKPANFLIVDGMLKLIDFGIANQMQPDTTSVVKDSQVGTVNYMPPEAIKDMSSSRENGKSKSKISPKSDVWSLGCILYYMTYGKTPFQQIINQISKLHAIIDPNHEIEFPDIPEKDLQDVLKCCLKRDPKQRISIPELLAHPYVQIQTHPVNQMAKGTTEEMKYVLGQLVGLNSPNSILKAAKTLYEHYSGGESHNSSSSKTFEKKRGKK
As to the kind of experiment: Tumor TTK target occupancy in MDA-MB-231 xenograft-bearing mice. The class given is in vivo. The procedure:
Prolonged TTK target occupancy was also measured in tumors derived from MDA-MB-231 xenograft-bearing mice treated with intermittent i.v. dosing regimen of compound of formula (I). […]

Where [2] appears, read: Group 1, Day 1: single 5 mg/kg i.v., female mice.
The mark [3] stands for this setting: Group 2, Day 6: 5 mg/kg i.v. after 10 mg/kg oral daily for 5 days, female mice.

The source of these data is patent US20250057844A1, “METHODS OF TREATING NEOPLASTIC DISEASES” (SILLAJEN, INC., priority 2021, published 2025).

Each structure is given as a SMILES string. Read-outs that look alike come from different tables or passages of the source.

The AUC(0-inf) is total exposure, with the tail of the curve extrapolated. A high value points to high exposure. One may read the AUC(0-t) as exposure summed from dosing to a finite time, without extrapolation to infinity. Read a low AUC(0-t) as less exposure. As to `COc1cc(N2CCNCC2)ccc1Nc1ncc2c(n1)-n1ccc(C(=O)Nc3c(C)cccc3C)c1CC2` [compound of formula (I)], in series [1] (5 mg/kg i.v.), the “concentrations at 24 hours lower than C0” value is “more than 100 fold”. The “maximum AUCinf extrapolation” value in series [1] (5 mg/kg i.v.) was at most 2.54%. Also, the AUC_% extrapolated in series [1] (setting [2]) was 2.54%; in series [1] (setting [3]), 1.65%. Moreover, the Clast in series [1] (setting [2]) is reported as 5.4 ng/mL; in series [1] (setting [3]), 4.29 ng/mL. Besides, the half-life is 4 to 4.7 h in series [1] (5 mg/kg i.v., both groups, read-out: half-life); 4.7 h in series [1] (Group 1, Day 1: single 5 mg/kg i.v., female mice, read-out: T1/2 (converted)); 4 h in series [1] (Group 2, Day 6: 5 mg/kg i.v. after 10 mg/kg oral daily for 5 days, female mice, read-out: T1/2 (converted)). Further, the clearance is 55.4 to 57.9 mL/min/kg in series [1] (5 mg/kg i.v., both groups, read-out: plasma clearance); 57.9 mL/min/kg in series [1] (Group 1, Day 1: single 5 mg/kg i.v., female mice, read-out: CL); 55.4 mL/min/kg in series [1] (Group 2, Day 6: 5 mg/kg i.v. after 10 mg/kg oral daily for 5 days, female mice, read-out: CL). Also, the Vd was 15.4 to 19 L/kg in series [1] (5 mg/kg i.v., both groups, read-out: volume of distribution); 19 L/kg in series [1] (Group 1, Day 1: single 5 mg/kg i.v., female mice, read-out: Vss); 15.4 L/kg in series [1] (Group 2, Day 6: 5 mg/kg i.v. after 10 mg/kg oral daily for 5 days, female mice, read-out: Vss). Also, the figures for the area under the curve AUC(0-inf) in series [1] (setting [2]) and in series [1] (setting [3]) were 1440 ng·h/mL and 1500 ng·h/mL, respectively. The AUC(0-t) worked out at 1400 ng·h/mL in series [1] (setting [2]) and 1480 ng·h/mL in series [1] (setting [3]). Moreover, the figures for the C0 in series [1] (setting [2]) and in series [1] (setting [3]) were 636 ng/mL and 627 ng/mL, respectively. The “time TTK completely occupied after last dose” value on tumor-derived TTK (IV twice-weekly, MTD dose, MDA-MB-231 tumors) was “at least 72 h”. At tumor-derived TTK (IV weekly MTD dosing, repeat experiment), the “time tumor-derived TTK fully drug-occupied after last administration” value was “up to 6 days”.
